Measured values from article PMC6273913, “New α-Methylene-γ-Butyrolactone Derivatives as Potential Fungicidal Agents: Design, Synthesis and Antifungal Activities” (Molecules, 2016).
Where two headings read alike, the source gives them in different places.

Assays:
HepG2 cell line = test: Cytotoxic activity against human tumor cells line (HepG2); format: cell-based
B. cinerea = test: Spore germination assay, fungicidal activity against B. cinerea; format: cell-based, Botrytis cinerea; conditions: Botrytis cinerea, in vitro, n = 3
Protocol: (§1) The fungal pathogens C. lagenarium and B. cinerea was provided by the Agricultural Culture Collection of China (Yangling, Shaanxi, China). C. lagenarium was cultured for 2 weeks at 25 ± 1 °C on potato dextrose agar (PDA) while B. cinerea was cultured at 20 °C on the same medium after being retrieved from the storage tube. Plates were flooded with sterile distilled water, and then conidia were scraped with a glass rod. Mycelial debris was removed by filtration. The spores were harvested and suspended in sterile distilled water containing 0.1% (v/v) Tween 20. The concentration of the spore suspension was adjusted to 1.0 × 10^6 spores/mL with sterilized distilled water following.
(§2) The tested samples (10.0 mg) dissolved in acetone (0.1 mL) were diluted with sterile distilled water to prepare 10.0 mL stock solution, which was further diluted to prepare test solutions in which the final concentration of acetone was <1% (v/v). A series of concentrations of tested samples and one control (1% acetone with sterile distilled water) were separately tested for spore germination of C. lagenarium or B. cinerea. The samples were inoculated with spore suspension of C. lagenarium or B. cinerea containing 1.0 × 10^6 spores/mL. Aliquots of 10 μL of prepared spore suspension were placed on separate glass slides in triplicate. Slides containing the spores were incubated in a moisture chamber at 25 °C for 6~8 h. Each slide was then observed under the microscope for spore germination. Spores were considered to have germinated if the length of the germ tube was at least half the length of the spore. Afterward, spore germination was stopped by applying a drop of lactophenol-cotton blue to the inoculation sites on plates. The numbers of generated spores were counted under a microscope (Olympus BX61, Tokyo, Japan), and the percentage of germinated spores was calculated. Chlorothalonil was used as the positive control.

C. lagenarium = test: Spore germination assay, fungicidal activity against C. lagenarium; format: cell-based, Colletotrichum lagenarium; conditions: Colletotrichum orbiculare
Protocol: as §1, §2

[1] = Table 1, from IC50 in μM, read-out: pIC50, C. lagenarium (converted)
[2] = Table 2, fungicidal activity against C. lagenarium used for QSAR, read-out: pIC50 (converted)
[3] = Table 4, experimental, C. lagenarium, read-out: Exp. pIC50 (converted)
[4] = Table 6, read-out: IC50 (μM) (against C. lagenarium)
[5] = in vitro, spore germination, n = 3, read-out: IC50, C. lagenarium

Compound | IC50 (HepG2 cell line) | melting point | IC50 (B. cinerea) | IC50 (C. lagenarium; [1]) | IC50 (C. lagenarium; [2]) | IC50 (C. lagenarium; [3]) | IC50 (C. lagenarium; [4]) | IC50 (C. lagenarium; [5])
C=C1CC(c2cccc(OC(=O)c3ccccc3)c2)OC1=O (stereo not shown) [Compound 6f, 4-(3-Benzoyloxyphenyl)-2-methylenebutyrolactone] | 18.5 µM | 204.5 to 204.8 °C | 102 µM | 73.1 µM | 73.1 µM | 73.1 µM | 73.1 µM | 73.1 µM
C=C1CC(c2ccc(OC(=O)c3cccc(Br)c3)cc2)OC1=O (stereo not shown) [Compound 4e, 4-[4-(3-Bromobenzoyloxy)phenyl]-2-methylenebutyrolactone] | 21.7 µM | 176.5 to 176.8 °C | 30.2 µM | 8.77 µM | 8.77 µM | 8.77 µM | 8.76 µM | 8.76 µM
C=C1CC(c2cccc(OCCCC)c2)OC1=O (stereo not shown) [Compound 6o, 4-(3-Butoxyphenyl)-2-methylenebutyrolactone] | > 108 µM |  | 280 µM | 242 µM | 242 µM | 242 µM | 242 µM | 242 µM
C=C1CC(c2ccc(OC(=O)C=Cc3ccc(O)c(OC)c3)cc2)OC1=O (stereo not shown) [Compound 4q] | 27.3 µM |  | 21.5 µM | 8.93 µM |  | 8.93 µM | 8.93 µM | 8.93 µM
C=C1CC(c2ccc(OC(=O)c3cccc(C)c3)cc2)OC1=O (stereo not shown) [Compound 4k, 4-[4-(3-Methylbenzoyloxy)phenyl]-2-methylenebutyrolactone] | 28.5 µM | 186.2 to 186.6 °C | 193 µM | 178 µM | 178 µM | 178 µM | 178 µM | 178 µM
C=C1CC(c2ccccc2OC(=O)CCC)OC1=O (stereo not shown) [Compound 5m, 4-[2-(Butyryloxy)phenyl]-2-methylenebutyrolactone] | 23.8 µM |  | 206 µM | 174 µM | 174 µM | 174 µM | 174 µM | 174 µM
C=C1CC(c2ccc(OC(=O)CC)cc2)OC1=O (stereo not shown) [Compound 4p, 4-[4-(Propionyloxy)phenyl]-2-methylenebutyrolactone] | 19.5 µM |  | 237 µM | 207 µM | 207 µM | 207 µM | 207 µM | 207 µM
C=C1CC(c2cccc(OC(=O)C=Cc3ccccc3)c2)OC1=O (stereo not shown) [Compound 6n, 4-(3-Cinnamoyloxyphenyl)-2-methylenebutyrolactone] | 15.7 µM |  | 40.3 µM | 24.3 µM | 24.3 µM | 24.3 µM | 24.2 µM | 24.2 µM
C=C1CC(c2ccccc2OC(=O)c2cccc(Cl)c2)OC1=O (stereo not shown) [Compound 5a, 4-[2-(3-Chlorobenzoyloxy)phenyl]-2-methylenebutyrolactone] | 28.4 µM | 201.3 to 201.8 °C | 30.6 µM | 16.8 µM | 16.8 µM | 16.8 µM | 16.8 µM | 16.8 µM
C=C1CC(c2cccc(OC(=O)c3ccccc3C)c2)OC1=O (stereo not shown) [Compound 6g, 4-[3-(2-Methylbenzoyloxy)phenyl]-2-methylenebutyrolactone] | 22 µM | 178.3 to 178.9 °C | 180 µM | 159 µM | 159 µM | 159 µM | 159 µM | 159 µM
C=C1CC(c2cccc(OC(=O)c3cccc(Cl)c3)c2)OC1=O (stereo not shown) [Compound 6a, 4-[3-(3-Chlorobenzoyloxy)phenyl]-2-methylenebutyrolactone] | 30.2 µM | 205.7 to 206.4 °C | 23.3 µM | 7.67 µM | 7.67 µM | 7.67 µM | 7.68 µM | 7.68 µM
C=C1CC(c2ccc(OC(=O)c3cccc(C#N)c3)cc2)OC1=O (stereo not shown) [Compound 4g, 4-[4-(3-Benzonitrile)phenyl]-2-methylenebutyrolactone] | 18.3 µM |  | 60.6 µM | 52.8 µM | 52.8 µM | 52.8 µM | 52.9 µM | 52.9 µM
C=C1CC(c2cccc(OC(=O)c3ccccc3Br)c2)OC1=O (stereo not shown) [Compound 6c, 4-[3-(2-Bromobenzoyloxy)phenyl]-2-methylenebutyrolactone] |  | 175.3 to 175.8 °C | 27.4 µM | 10.3 µM | 10.3 µM | 10.3 µM |  | 10.3 µM
C=C1CC(c2ccccc2OCCC)OC1=O (stereo not shown) [Compound 5p, 4-(2-Propoxylphenyl)-2-methylenebutyrolactone] | > 132 µM |  | 525 µM | 499 µM | 499 µM | 499 µM | 499 µM | 499 µM
C=C1CC(c2ccc(OC(=O)c3ccc(C)cc3)cc2)OC1=O (stereo not shown) [Compound 4l, 4-[4-(4-Methylbenzoyloxy)phenyl]-2-methylenebutyrolactone] |  | 184.5 to 185.1 °C | 209 µM | 189 µM | 189 µM | 189 µM |  | 189 µM
C=C1CC(c2ccc(OC(=O)c3ccccc3Cl)cc2)OC1=O (stereo not shown) [Compound 4a, 4-[4-(2-Chlorobenzoyloxy)phenyl]-2-methylenebutyrolactone] |  | 187.2 to 187.9 °C | 29.8 µM | 14 µM | 14 µM | 14 µM |  | 14 µM
C=C1CC(c2cccc(OC(=O)c3ccccc3OC)c2)OC1=O (stereo not shown) [Compound 6j, 4-[3-(2-Methoxylbenzoyloxy)phenyl]-2-methylenebutyrolactone] |  | 172.3 to 172.8 °C | 196 µM | 162 µM | 162 µM | 162 µM |  | 162 µM
C=C1CC(c2ccccc2OCC)OC1=O (stereo not shown) [Compound 5r, 4-(2-Ethoxyphenyl)-2-methylenebutyrolactone] | 38.4 µM |  | 549 µM | 520 µM | 520 µM | 520 µM | 519 µM | 519 µM
C=C1CC(c2cccc(OC(=O)c3ccc(Cl)cc3)c2)OC1=O (stereo not shown) [Compound 6b, 4-[3-(4-Chlorobenzoyloxy)phenyl]-2-methylenebutyrolactone] |  | 209.8 to 210.5 °C | 29.1 µM | 9.25 µM | 9.25 µM | 9.25 µM |  | 9.24 µM
C=C1CC(c2ccc(OC(=O)c3cccc(OC)c3)cc2)OC1=O (stereo not shown) [Compound 4n, 4-[4-(3-Methoxylbenzoyloxy)phenyl]-2-methylenebutyrolactone] |  | 185.7 to 186.2 °C | 224 µM | 212 µM | 212 µM | 212 µM |  | 212 µM
C=C1CC(c2ccccc2OC(=O)c2ccc(C)cc2)OC1=O (stereo not shown) [Compound 5j, 4-[2-(4-Methylbenzoyloxy)phenyl]-2-methylenebutyrolactone] |  | 181.2 to 181.6 °C | 259 µM | 207 µM | 207 µM | 207 µM |  | 208 µM
